Values joined by “and” are separate entries in the source; they are usually repeats but may differ in a detail not shown here. Equal entries are not always repeated.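 Each compound was tested at five concentrations against cells in 96-well plates for 48 hours. TGI marks complete inhibition of growth.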 *1 amine or outer side, *2 acyl side, *3 side chain or, on linkers, in order; H or OH if unused. Where a SMILES comes first, the peptide text is derived from it. Bridges are numbered along the chain shown (N, C = ends). [ ]: non-standard residue; d: D form. ξ: configuration not given here. X4 = CCC(C)C(N[*:1])C(O)CC(=O)O[C@H](C(=O)C(C)C(=O)[*:2])C(C)C; NMeY = CN[C@@H](Cc1ccc(O)cc1)C(=O)O; ξNMeL = CNC(CC(C)C)C(=O)O; ξT = CC(O)C(N)C(=O)O A value given as a limit tells only on which side of the number the result lay.

As a reminder, the TGI is the concentration giving total growth inhibition. Read a high TGI as less potent growth arrest.

Holding throughout (experiment): DTP human tumour cell line panel, 48 h
For test [1], the system named is CCRF-CEM leukemia.
The test system of test [2] is HCT-15 colon.
The test system of test [3] is HL-60(TB) leukemia.
Test [4] concerns HS 578T breast.
Test [5] deals with MDA-MB-435.
Test [6] has as its system SK-MEL-5 melanoma.
Test [7] deals with SK-OV-3 ovarian.
The test system of test [8] is SW-620 colon.
Test [9] concerns UACC-62 melanoma.
Test [10] deals with SR leukemia.

Turning to `Cc1[nH]c(-c2ccccc2)c(-c2ccc(Cl)cc2)c1C(=O)ONC(=O)c1ccccc1`, the TGI in test [1] is over 21.8 µM; in [2], 21.6 µM; in test [3], 3.29 µM; in test [4] it was 5.72 µM; in test [5] it was 11.9 µM; in [6], 14.1 µM. For the same molecule, the TGI in test [7] worked out at 32.4 µM; in test [8] it was 31.7 µM; in test [9], 23.3 µM.

As to `NC(CCCCNC(=O)OCc1ccccc1)C(=O)NC(CCCCNC(=O)OCc1ccccc1)C(=O)ON1C(=O)CCC1=O` (stereo not drawn), the TGI in test [1], in test [2], in test [3], in test [4], in [6] and in test [10] was over 100 µM each time. For the same molecule, the TGI in test [8] and in test [9] was over 100 µM each time.

As for `COC(=O)[C@@H]1N2C(=S)N(c3ccccc3)C(=O)[C@H]2SC1(C)C`, the total growth inhibition concentration (TGI) in test [2], in test [5], in test [6], in test [7], in test [10] and in [8] was over 100 µM throughout. In [9], this molecule yielded a TGI of over 100 µM.

Take `OC1OC(c2ccco2)C(F)(F)C(F)(F)C1(F)F` (stereo not drawn): the TGI in [1] was over 100 µM; in [2] it was over 100 µM; in test [3], over 100 µM; in test [4] it was 76.2 µM; in test [5], over 100 µM; in test [6], 89.1 µM. For the same molecule, the concentration for total growth inhibition (TGI) in test [7], in test [8] and in [9] was over 100 µM each time.

Turning to `O=C(NNC(=S)Nc1ccccc1)c1csc(NC(=S)NC2CCCCC2)n1`, the TGI was over 100 µM in test [1]; over 100 µM in test [2]; over 100 µM in [3]; over 100 µM in [5]; 38.8 µM in test [6]; over 100 µM in test [7]. Further, the TGI in test [10], in test [8] and in [9] was over 100 µM each time.

`CN(C(=O)c1ccc(Cl)s1)C(=S)N(C)C(=O)c1ccc(Cl)s1`: the TGI in test [1], in [2], in test [3], in [4], in test [6] and in test [7] was over 10 µM throughout. Moreover, the TGI in test [10], in [8] and in [9] was over 10 µM in each case.

For the molecule `O=C(O)c1ccc(Nc2nc3cc(C(F)(F)F)ccc3nc2C(=O)O)cc1`, the TGI in test [2], in test [3], in test [4], in [5], in test [6] and in [10] was over 100 µM in each case. Besides, the TGI in test [8] was over 100 µM.

In the case of `CC(C)n1c(=O)n(-c2ccccc2)n(C(C)(C)C)c1=O`, the TGI in test [1], in test [2], in [3], in test [4], in [6] and in test [7] was over 100 µM throughout. Besides, the TGI in [10], in test [8] and in test [9] was over 100 µM in each case.

On to `COC(=O)c1cncc2c1CC1C3(C(=O)OC)C=NC(C4C(CO)=CCC43)C21C` (stereo not drawn), for which the TGI in test [1], in [2], in [3], in [4], in test [5] and in [6] was over 100 µM each time. Moreover, the TGI in test [10] and in test [8] was over 100 µM throughout.

Turning to `COS(=O)c1cc(Cl)cc(Cl)c1O` (stereo not drawn), the TGI in [1], in test [3], in test [7], in [10] and in test [9] was over 100 µM throughout.

`CSc1nncc(-c2cc3c(c(SC)n2)CCC3)n1`: the total growth inhibition concentration (TGI) in test [1], in [2], in test [3], in test [5], in test [6] and in test [7] was over 100 µM in each case. Further, the TGI in test [8] and in test [9] was over 100 µM in each case.

As for `CCC(C)C1NC(=O)C(NC(=O)C(CC(C)C)N(C)C(=O)[C@@H]2CCCN2)C(C)OC(=O)[C@H](Cc2ccc(OC)cc2)N(C)C(=O)[C@@H]2CCCN2C(=O)[C@H](CC(C)C)NC(=O)C(C)C(=O)[C@H](C(C)C)OC(=O)CC1O` (stereo partly drawn) (H-P[ξNMeL][ξT][X4]LP[NMeY](Me); ester 3-C), the TGI in test [1] is 0.0557 µM; in test [2], 0.224 µM and 0.146 µM; in [3], 0.0279 µM and 0.0213 µM; in [5], 0.0032 µM; in test [6] it was 0.00748 µM; in test [7] it was 0.0177 µM. In addition, the TGI was 7.45 µM in test [10]; 0.0802 µM and 0.0232 µM in test [8]; 0.00147 µM in test [9].

Consider `Cc1cc(S(=O)(=O)Nc2nc(N)nc(N3N=CCC3C)n2)c(S)cc1Cl` (stereo not drawn), for which the TGI in test [1], in [2], in [3], in [4], in test [6] and in test [7] was over 10 µM throughout. For the same molecule, the concentration for total growth inhibition (TGI) in [10] and in test [8] was over 10 µM each time.

As to `CC[N+](C)(CC)CCN1C(=O)c2ccccc2S1(=O)=O`, the total growth inhibition concentration (TGI) in [1], in test [2], in [3], in test [4], in test [5] and in [6] was over 100 µM each time. Besides, the TGI in [7], in test [8] and in test [9] was over 100 µM in each case.

As for `CCOC(=O)c1cn(-c2ccc(Cl)cc2)c(=O)n2c1nc1ccccc12`, the TGI in [1], in test [2], in test [5], in [6], in test [10] and in test [8] was over 100 µM each time. The total growth inhibition concentration (TGI) in test [9] was over 100 µM.

Turning to `COc1cc(C2C3=C(COC3=O)OC(C)(C)Oc3cc4c(cc32)OCO4)cc(OC)c1OC` (stereo not drawn), the TGI in [3] was 1.26 µM; in test [4], over 100 µM; in [5] it was 0.5 µM; in [6] it was 2.33 µM; in test [7], over 100 µM; in test [8] it was over 100 µM. The same molecule gave a TGI in test [9] of over 20 µM.
